Test results from patent US20070281992A1, “COMBINATION OF GYRASE B INHIBITORS AND PROTEIN SYNTHESIS INHIBITORS AND USES THEREOF” (priority 2006, published 2007).
Read-outs that look alike come from different tables or passages of the source.

Assays:
Type in all cases: cell-based
Conditions in all cases: for MIC: read-out: Minimal Inhibitory Concentration
[1] = tested on: Linezolid-Resistant Staphylococcus aureus Isolates; assay: MIC assay (NCCLS broth dilution), LRSA isolates
How it was run: (§1)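 Staphylococcal isolates and QC strains (S. aureus ATCC 29213, E. faecalis ATCC 29212) tested by NCCLS broth dilution in Mueller Hinton II broth. Agents run as 11 two-fold serial dilutions, with novobiocin combined with tetracycline or minocycline at 2.5:1. Vancomycin was the control.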

[2] = tested on: Vancomycin-intermediate Staphylococcus epidermidis Isolates; assay: MIC assay (NCCLS broth dilution), VISE isolates
How it was run: as §1

[3] = tested on: Methicillin-Resistant Staphylococcus aureus Isolates; assay: MIC assay (NCCLS broth dilution), MRSA clinical isolates
How it was run: as §1

[4] = tested on: Methicillin-Susceptible Staphylococcus aureus Isolates; assay: MIC assay (NCCLS broth dilution), MSSA clinical isolates
How it was run: as §1

[5] = tested on: Unconfirmed Vancomycin-intermediate Staphylococcus epidermidis Isolates; assay: MIC assay (NCCLS broth dilution), unconfirmed VISE isolates
How it was run: as §1

[6] = Staphylococcus aureus, 52 MRSA isolates, combinations at 2.5:1, given as NB/partner
[7] = Staphylococcus aureus, 52 MSSA isolates, combinations at 2.5:1, given as NB/partner

CN(C)c1ccc(O)c2c1C[C@H]1C[C@H]3[C@H](N(C)C)C(O)=C(C(N)=O)C(=O)[C@@]3(O)C(O)=C1C2=O [MI, minocycline]
MIC Range ([1]; 3 LRSA isolates, combinations at 2.5:1): 0.12 to 2 µg/mL
MIC ([1]; Staphylococcus aureus, LRSA isolate 1651, 24FEB06): 0.12 µg/mL
MIC ([1]; Staphylococcus aureus, LRSA isolate 1652, 24FEB06): 0.12 µg/mL
MIC ([1]; Staphylococcus aureus, LRSA isolate 1725, 24FEB06): 2 µg/mL
MIC50 ([1]; Staphylococcus aureus, 3 LRSA isolates, combinations at 2.5:1): 0.12 µg/mL
MIC Range ([2]; 4 VISE isolates, combinations at 2.5:1): .06 to .25 µg/mL
MIC ([2]; Staphylococcus epidermidis, VISE isolate 2020, 09MAR06): 0.12 µg/mL
MIC ([2]; Staphylococcus epidermidis, VISE isolate 2021, 09MAR06): 0.06 µg/mL
MIC ([2]; Staphylococcus epidermidis, VISE isolate 2022, 03MAR06): 0.25 µg/mL
MIC ([2]; Staphylococcus epidermidis, VISE isolate 2023, 03MAR06): 0.06 µg/mL
MIC50 ([2]; Staphylococcus epidermidis, 4 VISE isolates, combinations at 2.5:1): 0.06 µg/mL
MIC Range ([3]; 52 MRSA isolates, combinations at 2.5:1, given as NB/partner): .06 to .16 µg/mL
MIC ([3]; Staphylococcus aureus, MRSA isolate 757, 24FEB06): 8 µg/mL
MIC ([3]; Staphylococcus aureus, MRSA isolate 758, 03MAR06): 0.12 µg/mL
MIC ([3]; Staphylococcus aureus, MRSA isolate 758, 24FEB06): 0.12 µg/mL
MIC ([3]; Staphylococcus aureus, MRSA isolate 760, 03MAR06): 0.12 µg/mL
MIC ([3]; Staphylococcus aureus, MRSA isolate 760, 24FEB06): 0.12 µg/mL
MIC ([3]; Staphylococcus aureus, MRSA isolate 763, 22FEB06): 0.12 µg/mL
MIC ([3]; Staphylococcus aureus, MRSA isolate 765, 22FEB06): 0.06 µg/mL
MIC ([3]; Staphylococcus aureus, MRSA isolate 766, 22FEB06): 0.12 µg/mL
MIC ([3]; Staphylococcus aureus, MRSA isolate 767, 22FEB06): 0.12 µg/mL
MIC ([3]; Staphylococcus aureus, MRSA isolate 768, 22FEB06): 0.06 µg/mL
MIC ([3]; Staphylococcus aureus, MRSA isolate 769, 22FEB06): 0.12 µg/mL
MIC ([3]; Staphylococcus aureus, MRSA isolate 770, 22FEB06): 0.12 µg/mL
MIC ([3]; Staphylococcus aureus, MRSA isolate 771, 22FEB06): 0.12 µg/mL
MIC ([3]; Staphylococcus aureus, MRSA isolate 772, 22FEB06): 0.12 µg/mL
MIC ([3]; Staphylococcus aureus, MRSA isolate 773, 24FEB06): 0.12 µg/mL
MIC ([3]; Staphylococcus aureus, MRSA isolate 774, 24FEB06): 0.12 µg/mL
MIC ([3]; Staphylococcus aureus, MRSA isolate 775, 24FEB06): 0.12 µg/mL
MIC ([3]; Staphylococcus aureus, MRSA isolate 776, 24FEB06): 0.12 µg/mL
MIC ([3]; Staphylococcus aureus, MRSA isolate 777, 24FEB06): 0.12 µg/mL
MIC ([3]; Staphylococcus aureus, MRSA isolate 778, 24FEB06): 0.06 µg/mL
MIC ([3]; Staphylococcus aureus, MRSA isolate 886, 24FEB06): 0.12 µg/mL
MIC ([3]; Staphylococcus aureus, MRSA isolate 887, 24FEB06): 0.12 µg/mL
MIC ([3]; Staphylococcus aureus, MRSA isolate 888, 24FEB06): 0.12 µg/mL
MIC ([3]; Staphylococcus aureus, MRSA isolate 889, 24FEB06): 0.12 µg/mL
MIC ([3]; Staphylococcus aureus, MRSA isolate 1004, 24FEB06): 0.12 µg/mL
MIC ([3]; Staphylococcus aureus, MRSA isolate 1010, 22FEB06): 0.12 µg/mL
MIC ([3]; Staphylococcus aureus, MRSA isolate 1012, 22FEB06): 0.12 µg/mL
MIC ([3]; Staphylococcus aureus, MRSA isolate 1013, 22FEB06): 0.12 µg/mL
MIC ([3]; Staphylococcus aureus, MRSA isolate 1014, 22FEB06): 0.12 µg/mL
MIC ([3]; Staphylococcus aureus, MRSA isolate 1015, 22FEB06): 0.12 µg/mL
MIC ([3]; Staphylococcus aureus, MRSA isolate 1016, 22FEB06): 0.12 µg/mL
MIC ([3]; Staphylococcus aureus, MRSA isolate 1017, 22FEB06): 0.12 µg/mL
MIC ([3]; Staphylococcus aureus, MRSA isolate 1021, 22FEB06): 0.12 µg/mL
MIC ([3]; Staphylococcus aureus, MRSA isolate 1022, 22FEB06): 0.12 µg/mL
MIC ([3]; Staphylococcus aureus, MRSA isolate 1023, 22FEB06): 0.12 µg/mL
MIC ([3]; Staphylococcus aureus, MRSA isolate 1024, 22FEB06): 0.12 µg/mL
MIC ([3]; Staphylococcus aureus, MRSA isolate 1025, 22FEB06): 0.12 µg/mL
MIC ([3]; Staphylococcus aureus, MRSA isolate 1135, 22FEB06): 0.12 µg/mL
MIC ([3]; Staphylococcus aureus, MRSA isolate 1136, 22FEB06): 0.12 µg/mL
MIC ([3]; Staphylococcus aureus, MRSA isolate 1137, 22FEB06): 0.12 µg/mL
MIC ([3]; Staphylococcus aureus, MRSA isolate 1138, 22FEB06): 0.12 µg/mL
MIC ([3]; Staphylococcus aureus, MRSA isolate 1222, 03MAR06): 0.06 µg/mL
MIC ([3]; Staphylococcus aureus, MRSA isolate 1222, 24FEB06): 0.12 µg/mL
MIC ([3]; Staphylococcus aureus, MRSA isolate 1653, 03MAR06): 0.06 µg/mL
MIC ([3]; Staphylococcus aureus, MRSA isolate 1658, 03MAR06): 0.06 µg/mL
MIC ([3]; Staphylococcus aureus, MRSA isolate 1659, 03MAR06): 0.06 µg/mL
MIC ([3]; Staphylococcus aureus, MRSA isolate 1661, 03MAR06): 0.12 µg/mL
MIC ([3]; Staphylococcus aureus, MRSA isolate 1729, 03MAR06): 16 µg/mL
MIC ([3]; Staphylococcus aureus, MRSA isolate 1730, 24FEB06): 0.12 µg/mL
MIC ([3]; Staphylococcus aureus, MRSA isolate 2009, 24FEB06): 1 µg/mL
MIC ([3]; Staphylococcus aureus, MRSA isolate 2010, 24FEB06): 0.12 µg/mL
MIC ([3]; Staphylococcus aureus, MRSA isolate 2011, 24FEB06): 0.12 µg/mL
MIC50 [3, 6]: 0.12 µg/mL
MIC90 [3, 6]: 0.12 µg/mL
MIC Range ([4]; 52 MSSA isolates, Mueller Hinton II Broth, combinations at 2.5:1, given as NB/partner): .06 to .12 µg/mL
MIC ([4]; Staphylococcus aureus, MSSA isolate 133, 03MAR06): 0.06 µg/mL
MIC ([4]; Staphylococcus aureus, MSSA isolate 134, 03MAR06): 0.06 µg/mL
MIC ([4]; Staphylococcus aureus, MSSA isolate 135, 03MAR06): 0.06 µg/mL
MIC ([4]; Staphylococcus aureus, MSSA isolate 753, 22FEB06): 0.12 µg/mL
MIC ([4]; Staphylococcus aureus, MSSA isolate 754, 22FEB06): 0.12 µg/mL
MIC ([4]; Staphylococcus aureus, MSSA isolate 754, 24FEB06): 0.12 µg/mL
MIC ([4]; Staphylococcus aureus, MSSA isolate 755, 22FEB06): 0.12 µg/mL
MIC ([4]; Staphylococcus aureus, MSSA isolate 756, 03MAR06): 0.06 µg/mL
MIC ([4]; Staphylococcus aureus, MSSA isolate 779, 22FEB06): 0.12 µg/mL
MIC ([4]; Staphylococcus aureus, MSSA isolate 780, 03MAR06): 0.12 µg/mL
MIC ([4]; Staphylococcus aureus, MSSA isolate 781, 03MAR06): 0.06 µg/mL
MIC ([4]; Staphylococcus aureus, MSSA isolate 782, 22FEB06): 0.12 µg/mL
MIC ([4]; Staphylococcus aureus, MSSA isolate 783, 22FEB06): 0.12 µg/mL
MIC ([4]; Staphylococcus aureus, MSSA isolate 784, 22FEB06): 0.12 µg/mL
MIC ([4]; Staphylococcus aureus, MSSA isolate 785, 22FEB06): 0.12 µg/mL
MIC ([4]; Staphylococcus aureus, MSSA isolate 786, 22FEB06): 0.12 µg/mL
MIC ([4]; Staphylococcus aureus, MSSA isolate 787, 22FEB06): 0.12 µg/mL
MIC ([4]; Staphylococcus aureus, MSSA isolate 788, 22FEB06): 0.12 µg/mL
MIC ([4]; Staphylococcus aureus, MSSA isolate 789, 24FEB06): 0.12 µg/mL
MIC ([4]; Staphylococcus aureus, MSSA isolate 790, 24FEB06): 0.12 µg/mL
MIC ([4]; Staphylococcus aureus, MSSA isolate 791, 24FEB06): 0.12 µg/mL
MIC ([4]; Staphylococcus aureus, MSSA isolate 792, 03MAR06): 0.06 µg/mL
MIC ([4]; Staphylococcus aureus, MSSA isolate 793, 24FEB06): 0.12 µg/mL
MIC ([4]; Staphylococcus aureus, MSSA isolate 794, 24FEB06): 0.12 µg/mL
MIC ([4]; Staphylococcus aureus, MSSA isolate 994, 22FEB06): 0.12 µg/mL
MIC ([4]; Staphylococcus aureus, MSSA isolate 995, 03MAR06): 0.12 µg/mL
MIC ([4]; Staphylococcus aureus, MSSA isolate 996, 22FEB06): 0.06 µg/mL
MIC ([4]; Staphylococcus aureus, MSSA isolate 997, 22FEB06): 0.12 µg/mL
MIC ([4]; Staphylococcus aureus, MSSA isolate 998, 03MAR06): 0.06 µg/mL
MIC ([4]; Staphylococcus aureus, MSSA isolate 999, 22FEB06): 0.12 µg/mL
MIC ([4]; Staphylococcus aureus, MSSA isolate 1000, 24FEB06): 0.12 µg/mL
MIC ([4]; Staphylococcus aureus, MSSA isolate 1001, 24FEB06): 0.12 µg/mL
MIC ([4]; Staphylococcus aureus, MSSA isolate 1002, 24FEB06): 0.12 µg/mL
MIC ([4]; Staphylococcus aureus, MSSA isolate 1003, 03MAR06): 0.06 µg/mL
MIC ([4]; Staphylococcus aureus, MSSA isolate 1005, 24FEB06): 0.06 µg/mL
MIC ([4]; Staphylococcus aureus, MSSA isolate 1006, 24FEB06): 0.12 µg/mL
MIC ([4]; Staphylococcus aureus, MSSA isolate 1007, 24FEB06): 0.12 µg/mL
MIC ([4]; Staphylococcus aureus, MSSA isolate 1008, 24FEB06): 0.06 µg/mL
MIC ([4]; Staphylococcus aureus, MSSA isolate 1009, 24FEB06): 0.12 µg/mL
MIC ([4]; Staphylococcus aureus, MSSA isolate 1131, 24FEB06): 0.06 µg/mL
MIC ([4]; Staphylococcus aureus, MSSA isolate 1132, 03MAR06): 0.06 µg/mL
MIC ([4]; Staphylococcus aureus, MSSA isolate 1133, 24FEB06): 0.12 µg/mL
MIC ([4]; Staphylococcus aureus, MSSA isolate 1134, 24FEB06): 0.12 µg/mL
MIC ([4]; Staphylococcus aureus, MSSA isolate 1654, 03MAR06): 0.12 µg/mL
MIC ([4]; Staphylococcus aureus, MSSA isolate 1656, 03MAR06): 0.06 µg/mL
MIC ([4]; Staphylococcus aureus, MSSA isolate 1662, 03MAR06): 0.06 µg/mL
MIC ([4]; Staphylococcus aureus, MSSA isolate 1663, 03MAR06): 0.12 µg/mL
MIC ([4]; Staphylococcus aureus, MSSA isolate 1666, 03MAR06): 0.06 µg/mL
MIC ([4]; Staphylococcus aureus, MSSA isolate 1667, 03MAR06): 0.12 µg/mL
MIC ([4]; Staphylococcus aureus, MSSA isolate 1668, 03MAR06): 0.06 µg/mL
MIC ([4]; Staphylococcus aureus, MSSA isolate 1671, 03MAR06): 0.06 µg/mL
MIC ([4]; Staphylococcus aureus, MSSA isolate 1728, 03MAR06): 0.06 µg/mL
MIC ([4]; Staphylococcus aureus, MSSA isolate 1728, retest 09MAR06): 0.06 µg/mL
MIC50 [4, 7]: 0.12 µg/mL
MIC90 [4, 7]: 0.12 µg/mL
MIC Range ([5]; 3 unconfirmed VISE isolates, combinations at 2.5:1): 0.12 to 0.25 µg/mL
MIC ([5]; Staphylococcus epidermidis, Unconfirmed VISE isolate 2024, 09MAR06): 0.25 µg/mL
MIC ([5]; Staphylococcus epidermidis, Unconfirmed VISE isolate 2025, 09MAR06): 0.12 µg/mL
MIC ([5]; Staphylococcus epidermidis, Unconfirmed VISE isolate 2026, 03MAR06): 0.25 µg/mL
MIC50 ([5]; Staphylococcus epidermidis, 3 unconfirmed VISE isolates, combinations at 2.5:1): 0.25 µg/mL
